From PubChem BioAssay (NCI)
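Each compound was tested at five concentrations against cells in 96-well plates for 48 hours. TGI: total growth inhibition.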

Assays:
Experiment in all cases: NCI tumour cell line growth inhibition, 48 h
[1] = test system: HCC-2998 colon
[2] = test system: M19-MEL melanoma
[3] = test system: NCI-H460 lung
[4] = test system: NCI-H226 lung
[5] = test system: K-562 leukemia
[6] = test system: LXFL 529 NSCLC
[7] = test system: TK-10 renal
[8] = test system: OVCAR-8 ovarian
[9] = test system: UO-31 renal
[10] = test system: OVCAR-5 ovarian
[11] = test system: COLO 205 colon
[12] = test system: U251 CNS
[13] = test system: SW-620 colon
[14] = test system: HL-60(TB) leukemia
[15] = test system: UACC-257 melanoma
[16] = test system: HCT-15 colon
[17] = test system: SF-539 CNS
[18] = test system: HT29 colon
[19] = test system: UACC-62 melanoma
[20] = test system: HCT-116 colon
[21] = test system: DMS 273 small cell lung
[22] = test system: SR leukemia
[23] = test system: CAKI-1 renal
[24] = test system: MALME-3M melanoma
[25] = test system: OVCAR-3 ovarian
[26] = test system: SNB-19 CNS
[27] = test system: SF-268 CNS
[28] = test system: ACHN renal
[29] = test system: HOP-18 NSCLC
[30] = test system: SK-OV-3 ovarian
[31] = test system: A549 NSCLC
[32] = test system: HOP-92 NSCLC
[33] = test system: SNB-75 CNS
[34] = test system: SF-295 CNS
[35] = test system: KM20L2 colon
[36] = test system: M14 melanoma
[37] = test system: SK-MEL-28 melanoma
[38] = test system: CCRF-CEM leukemia
[39] = test system: RXF 393 renal
[40] = test system: LOX IMVI melanoma
[41] = test system: SN12C renal
[42] = test system: SK-MEL-5 melanoma
[43] = test system: HOP-62 NSCLC
[44] = test system: NCI-H23 lung
[45] = test system: 786-0 renal
[46] = test system: DMS 114 small cell lung
[47] = test system: MOLT-4 leukemia
[48] = test system: DLD-1 colon
[49] = test system: IGROV1 ovarian
[50] = test system: SNB-78 CNS
[51] = test system: A498 renal
[52] = test system: OVCAR-4 ovarian
[53] = test system: RPMI-8226 leukemia
[54] = test system: KM12 colon

Measured: TGI

COC(=O)C1[C@@H](C(=O)OC)C(=O)O[C@H]1c1cc(OC)c(OC)c(OC)c1 (some centres undefined)
> 100 µM: all assays above
